Measurements taken from ChEMBL document CHEMBL3124847, “Membrane damaging activity of a maslinic acid analog” (Eur J Med Chem, 2014).
In brackets after ≈: the same amount, converted by molar mass. Activity calls are given as the source filed them. The calls are words filed in the database; no cut-off is given here.

Experiments:
A2780 [1] = assay: Induction of apoptosis in human A2780 cells assessed as chromatin condensation at 1 uM after 24 hrs by acridine orange/propidium iodide staining-based fluorescence microscopy; type: functional, cell-based
A2780 [2] = assay: Induction of apoptosis in human A2780 cells assessed as cholesterol crystal formation after 24 hrs by acridine orange/propidium iodide staining-based fluorescence microscopy; type: functional, cell-based
A2780 [3] = assay: Induction of apoptosis in human A2780 cells assessed as cell shrinkage at 1 uM after 24 hrs by acridine orange/propidium iodide staining-based fluorescence microscopy; type: functional
A2780 [4] = assay: Induction of apoptosis in human A2780 cells assessed as caspase 9 activity at 1 uM after 24 hrs relative to control; type: functional
A2780 [5] = assay: Induction of apoptosis in human A2780 cells assessed as caspase 3 activity at 1 uM after 24 hrs relative to control; type: functional
A2780 [6] = assay: Induction of apoptosis in human A2780 cells assessed as caspase 9 activity at 1 uM after 12 hrs relative to control; type: functional
A2780 [7] = assay: Induction of apoptosis in human A2780 cells assessed as caspase 9 activity at 1 uM after 6 hrs relative to control; type: functional
A2780 [8] = assay: Induction of apoptosis in human A2780 cells assessed as caspase 3 activity at 1 uM after 12 hrs relative to control; type: functional
A2780 [9] = assay: Induction of apoptosis in human A2780 cells assessed as caspase 3 activity at 1 uM after 6 hrs relative to control; type: functional
A2780 [10] = assay: Induction of apoptosis in human A2780 cells assessed as cholesterol crystal formation at 1 uM by acridine orange/propidium iodide staining-based fluorescence microscopy; type: functional, cell-based; details: TDE = time-dependent effect
A2780 [11] = assay: Induction of apoptosis in human A2780 cells assessed as caspase 8 activity at 1 uM after 12 hrs relative to control; type: functional
A2780 [12] = assay: Induction of apoptosis in human A2780 cells assessed as caspase 8 activity at 1 uM after 6 hrs relative to control; type: functional
A2780 [13] = assay: Induction of apoptosis in human A2780 cells assessed as caspase 8 activity at 1 uM after 24 hrs relative to control; type: functional
MCF7 = assay: Cytotoxicity against human MCF7 cells after 96 hrs by SRB assay; type: functional, cell-based; details: MCF7, 96 h
8505C = assay: Cytotoxicity against human 8505C cells after 96 hrs by SRB assay; type: functional, cell-based
A2780 [14] = assay: Induction of apoptosis in human A2780 cells assessed as caspase 8 activity at 24 uM after 6 hrs relative to control; type: functional
A2780 [15] = assay: Induction of apoptosis in human A2780 cells assessed as caspase 9 activity at 60 uM after 6 hrs relative to control; type: functional
A2780 [16] = assay: Induction of apoptosis in human A2780 cells assessed as caspase 3 activity at 60 uM after 6 hrs relative to control; type: functional
A2780 [17] = assay: Induction of apoptosis in human A2780 cells assessed as caspase 9 activity at 60 uM after 12 hrs relative to control; type: functional
A2780 [18] = assay: Cytotoxicity against human A2780 cells after 96 hrs by SRB assay; type: functional, cell-based; details: A2780, 96 h
A2780 [19] = assay: Induction of apoptosis in human A2780 cells assessed as caspase 3 activity at 24 uM after 24 hrs relative to control; type: functional
A2780 [20] = assay: Induction of apoptosis in human A2780 cells assessed as caspase 3 activity at 24 uM after 12 hrs relative to control; type: functional
A2780 [21] = assay: Induction of apoptosis in human A2780 cells assessed as cell shrinkage at 24 to 60 uM after 24 hrs by acridine orange/propidium iodide staining-based fluorescence microscopy; type: functional
[22] = Cytotoxicity against human 518A2 cells after 96 hrs by SRB assay; type: functional, cell-based; details: 518A2, 96 h
HT-29 = assay: Cytotoxicity against human HT-29 cells after 96 hrs by SRB assay; type: functional, cell-based; details: HT-29, 96 h
A2780 [23] = assay: Induction of apoptosis in human A2780 cells assessed as phosphatidylserine externalization at 60 uM after 6 hrs by annexin V/propidium iodide staining-based FACS analysis; type: functional
A2780 [24] = assay: Induction of apoptosis in human A2780 cells assessed as caspase 8 activity at 24 uM after 12 hrs relative to control; type: functional
A2780 [25] = assay: Induction of apoptosis in human A2780 cells assessed as DNA fragmentation at 0.024 to 0.060 mM after 6 to 24 hrs by agarose gel electrophoresis; type: functional, cell-based
A2780 [26] = assay: Induction of apoptosis in human A2780 cells assessed as caspase 8 activity at 60 uM after 24 hrs relative to control; type: functional
A2780 [27] = assay: Induction of apoptosis in human A2780 cells assessed as caspase 8 activity at 24 uM after 24 hrs relative to control; type: functional
A2780 [28] = assay: Induction of apoptosis in human A2780 cells assessed as caspase 9 activity at 60 uM after 24 hrs relative to control; type: functional
A2780 [29] = assay: Induction of apoptosis in human A2780 cells assessed as caspase 3 activity at 24 uM after 6 hrs relative to control; type: functional
A2780 [30] = assay: Induction of apoptosis in human A2780 cells at 2 to 6 times IC50 after 6 to 24 hrs by acridine orange/propidium iodide staining-based fluorescence microscopy; type: functional, cell-based
[31] = Solubility of the compound in buffer at 10 uM after 90 mins by HPLC analysis; type: physicochemical
A2780 [32] = assay: Induction of apoptosis in human A2780 cells assessed as caspase 3 activity at 60 uM after 12 hrs relative to control; type: functional
A2780 [33] = assay: Cell cycle arrest in human A2780 cells assessed as accumulation at S phase at 24 uM after 6 hrs by annexin V/propidium iodide staining-based FACS analysis; type: functional
A2780 [34] = assay: Induction of apoptosis in human A2780 cells assessed as cholesterol crystal formation at 24 to 60 uM by acridine orange/propidium iodide staining-based fluorescence microscopy; type: functional, cell-based; details: TDE = time-dependent effect
A2780 [35] = assay: Cell cycle arrest in human A2780 cells assessed as early detachment of cells at 24 to 60 uM after 24 hrs by annexin V/propidium iodide staining-based FACS analysis; type: functional
A2780 [36] = assay: Induction of apoptosis in human A2780 cells assessed as caspase 9 activity at 24 uM after 12 hrs relative to control; type: functional
A2780 [37] = assay: Induction of apoptosis in human A2780 cells assessed as caspase 3 activity at 60 uM after 24 hrs relative to control; type: functional
A2780 [38] = assay: Induction of apoptosis in human A2780 cells assessed as caspase 8 activity at 60 uM after 6 hrs relative to control; type: functional
A2780 [39] = assay: Induction of apoptosis in human A2780 cells assessed as secondary necrotic cells at 24 to 60 uM after 6 to 24 hrs by annexin V/propidium iodide staining-based FACS analysis; type: functional, cell-based
A549 = assay: Cytotoxicity against human A549 cells after 96 hrs by SRB assay; type: functional, cell-based; details: A549, 96 h
A2780 [40] = assay: Induction of apoptosis in human A2780 cells assessed as chromatin condensation at 24 to 60 uM after 24 hrs by acridine orange/propidium iodide staining-based fluorescence microscopy; type: functional, cell-based
A2780 [41] = assay: Induction of apoptosis in human A2780 cells assessed as caspase 9 activity at 24 uM after 6 hrs relative to control; type: functional
A2780 [42] = assay: Induction of apoptosis in human A2780 cells assessed as caspase 9 activity at 24 uM after 24 hrs relative to control; type: functional
A2780 [43] = assay: Cell cycle arrest in human A2780 cells assessed as accumulation at G1/G0 phase at 12 uM after 12 hrs by annexin V/propidium iodide staining-based FACS analysis; type: functional
A2780 [44] = assay: Induction of apoptosis in human A2780 cells assessed as caspase 8 activity at 60 uM after 12 hrs relative to control; type: functional
NIH3T3 = assay: Cytotoxicity against mouse NIH/3T3 cells after 96 hrs by SRB assay; type: cell-based; details: NIH3T3, 96 h

## CN[C@@H]1C[C@H]2O[C@@](C)([C@@H]1OC)n1c3ccccc3c3c4c(c5c6ccccc6n2c5c31)C(=O)NC4 [STAUROSPORINE]
A2780 [1]
  Activity: Active
A2780 [2]
  Activity: Dose-dependent effect
A2780 [3]
  Activity: Active
A2780 [4]
  Activity: 33%
A2780 [5]
  Activity: 57%
A2780 [6]
  Activity: 3%
A2780 [7]
  Activity: 38%
A2780 [8]
  Activity: 52%
A2780 [9]
  Activity: 68%
A2780 [10]
  Activity: tde
A2780 [11]
  Activity: 52%
A2780 [12]
  Activity: 51%
A2780 [13]
  Activity: 79%

## CC1(C)CC[C@]2(C(=O)OCCCOc3ccccc3)CC[C@]3(C)C(=CC[C@@H]4[C@@]5(C)C[C@@H](O)[C@H](O)C(C)(C)[C@@H]5CC[C@]43C)[C@@H]2C1
MCF7
  IC50: 13.6 µM
8505C
  IC50: 13.3 µM
A2780 [14]
  Activity: 2%
A2780 [15]
  Activity: 3%
A2780 [2]
  Activity: Dose-dependent effect
A2780 [16]
  Activity: 29%
A2780 [17]
  Activity: 2%
A2780 [18]
  IC50: 10.6 µM
A2780 [19]
  Activity: 25%
A2780 [20]
  Activity: 1%
A2780 [21]
  Activity: Active
[22]
  IC50: 12.6 µM
HT-29
  IC50: 12.5 µM
A2780 [23]
  Activity: 80%
A2780 [24]
  Activity: 1%
A2780 [25]
  Activity: Active
A2780 [26]
  Activity: 39%
A2780 [27]
  Activity: 27%
A2780 [28]
  Activity: 21%
A2780 [29]
  Activity: 2%
A2780 [30]
  Activity: Active
[31]
  solubility at 1.5 h, 10 µM: 110 µM (≈ 66.5 µg/mL)
A2780 [32]
  Activity: 37%
A2780 [33]
  Activity: Active
A2780 [34]
  Activity: tde
A2780 [35]
  Activity: Active
A2780 [36]
  Activity: -2%
A2780 [37]
  Activity: 31%
A2780 [38]
  Activity: 25%
A2780 [39]
  Activity: Active
A549
  IC50: 13.7 µM
A2780 [40]
  Activity: Active
A2780 [41]
  Activity: 0%
A2780 [42]
  Activity: 6%
A2780 [43]
  Activity: Active
A2780 [44]
  Activity: 44%
NIH3T3
  IC50: 12.7 µM

## CC1(C)CC[C@]2(C(=O)O)CC[C@]3(C)C(=CC[C@@H]4[C@@]5(C)C[C@@H](O)[C@H](O)C(C)(C)[C@@H]5CC[C@]43C)[C@@H]2C1 [MASLINIC ACID]
NIH3T3
  IC50: 21.1 µM
